Legend:
human CRTH2 [1] = target: T1, human CRTH2 (Homo sapiens, UniProt Q9Y5Y4); assay: Calcium Flux Assay Using Fluorometric Imaging Plate Reader (FLIPR); type: cell-based; details: CHO-K1 cells transfected with G-alpha 16 and human CRTH2; inhibition of ligand (DK-PGD2) response
T1 construct: expressed in transfected cells; host or cells: CHO-K1
T1 sequence (Q9Y5Y4 1-395): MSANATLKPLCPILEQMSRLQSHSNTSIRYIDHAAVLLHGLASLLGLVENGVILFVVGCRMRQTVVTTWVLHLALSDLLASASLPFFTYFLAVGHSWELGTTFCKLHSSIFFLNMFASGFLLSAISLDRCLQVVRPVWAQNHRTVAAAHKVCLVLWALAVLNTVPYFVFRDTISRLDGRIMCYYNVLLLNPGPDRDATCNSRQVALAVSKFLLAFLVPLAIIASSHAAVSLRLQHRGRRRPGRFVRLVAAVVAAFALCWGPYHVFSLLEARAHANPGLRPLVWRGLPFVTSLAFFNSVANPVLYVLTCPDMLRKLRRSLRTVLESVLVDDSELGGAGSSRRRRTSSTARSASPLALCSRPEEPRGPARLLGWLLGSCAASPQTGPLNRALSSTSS
Method: CHO-K1 cells previously transfected with G-alpha 16 were subsequently transfected with the human CRTH2 receptor and the neomycin resistance gene. Following selection in 800 μg/mL G418 (geneticin), individual clones were assayed for their receptor expression based on staining with an anti human CRTH2 IgG, followed by assaying for their response to 13,14-dihydro-15-keto Prostaglandin D2 (DK-PDG2) (ligand) in the Ca^2+ Flux assay. Positive clones were then cloned by limiting dilution cloning. […] Cells were harvested with trypsin-EDTA (trypsin-ethylenediaminetetraacetic acid) and counted using ViaCount® reagent (from Guava Technologies, Inc. which contains two DNA-binding dyes that enable the reagent user to distinguish between viable and non-viable cells). […]
After incubation, both the cell and “assay plate” plates were brought to the fluorometric imaging plate reader (FLIPR®) and 20 μL of the diluted compounds were transferred to the cell plates by the FLIPR®. […] During the assay, fluorescence readings were taken simultaneously from all 384 wells of the cell plate every 1.5 seconds. Five readings were taken to establish a stable baseline, then 20 μL of sample was rapidly (30 μL/sec) and simultaneously added to each well of the cell plate. The fluorescence was continuously monitored before, during and after sample addition for a total elapsed time of 100 seconds. […]

human CRTH2 [2] = target: T1, human CRTH2; assay: Human CRTH2 Receptor Binding Assay (whole cell, [3H]ramatroban competition); details: CHO-K1 cells expressing human CRTH2 and G-alpha16; 20 nM [3H]ramatroban; 1 hour, room temperature
In short: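 Whole CHO-K1 cells stably expressing human CRTH2 and G-alpha16 were incubated with 20 nM [3H]ramatroban and compound for 1 h at room temperature in PBS with 10 mM MgCl2 and 0.06% BSA, then filtered and counted. Non-specific binding was defined with 10 μM 15(R)-15-methyl PGD2, and IC50 was fitted by 4-parameter logistic from 7 concentrations.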

Row | Structure (SMILES) | IC50 (human CRTH2 [1]) [nM] | IC50 (human CRTH2 [2]) [nM]
1 | CCS(=O)(=O)c1ccc(Oc2cc(CC(=O)O)cc3ccc(F)cc23)cc1 [Example 1-1, [4-(4-ethanesulfonyl-phenoxy)-6-fluoro-naphthalen-2-yl]-acetic acid] | 5000 | 2.3
2 | Cc1c(CC(=O)O)cc2ccccc2c1Oc1ccc(S(C)(=O)=O)cc1 [Example 3-2, [4-(4-methanesulfonyl-phenoxy)-3-methyl-naphthalen-2-yl]-acetic acid] | – | 4.7
3 | CCS(=O)(=O)c1ccc(Oc2cc(CC(=O)O)cc3cccc(F)c23)cc1 [Example 1-22, [4-(4-Ethanesulfonyl-phenoxy)-5-fluoro-naphthalen-2-yl]-acetic acid] | – | 5.4
4 | Cc1c(CC(=O)O)cc2ccc(F)cc2c1Oc1ncc(S(C)(=O)=O)cc1Br [Example 2-36, [4-(3-bromo-5-methanesulfonyl-pyridin-2-yloxy)-6-fluoro-3-methyl-naphthalen-2-yl]-acetic acid] | – | 0.02
5 | Cc1c(CC(=O)O)cc2ccc(F)cc2c1Oc1ccc(S(C)(=O)=O)cc1Cl [Example 2-20, [4-(2-chloro-4-methanesulfonyl-phenoxy)-6-fluoro-3-methyl-naphthalen-2-yl]-acetic acid] | – | 2.5
6 | CS(=O)(=O)c1ccc(Nc2cc(CC(=O)O)cc3ccc(F)cc23)cc1 [Example 8-1, [6-fluoro-4-(4-methanesulfonyl-phenylamino)-naphthalen-2-yl]-acetic acid] | – | 3.3
7 | CCS(=O)(=O)c1ccc(Oc2cc(CC(=O)O)c(C)c3ccc(F)cc23)nc1 [Example 6-1, [4-(5-ethanesulfonyl-pyridin-2-yloxy)-6-fluoro-1-methyl-naphthalen-2-yl]-acetic acid] | – | 32.1
8 | CCS(=O)(=O)c1ccc(Oc2cc(CC(=O)O)cc3ccc(OC)cc23)cc1 [Example 1-15, [4-(4-Ethanesulfonyl-phenoxy)-6-methoxy-naphthalen-2-yl]-acetic acid] | – | 5.3

The next lines start with the values.

Row | IC50 (human CRTH2 [1]) [nM] | IC50 (human CRTH2 [2]) [nM] | Structure (SMILES)
9 | 4200 | 130 | CCS(=O)(=O)c1ccc(Oc2c(C)c(CCC(=O)O)cc3ccc(F)cc23)cc1 [Example 7-1, 3-[4-(4-ethanesulfonyl-phenoxy)-6-fluoro-3-methyl-naphthalen-2-yl]-propionic acid]
10 | – | 1.7 | Cc1c(CC(=O)O)cc2ccc(F)cc2c1Oc1ccc(S(=O)(=O)N2CCN(C)CC2)cc1 [Example 2-41, {6-fluoro-3-methyl-4-[4-(4-methyl-piperazine-1-sulfonyl)-phenoxy]-naphthalen-2-yl}-acetic acid]
11 | – | 2.3 | Cc1c(CC(=O)O)cc2ccc(F)cc2c1Oc1ccc(S(=O)(=O)C2CCCC2)cc1 [Example 2-26, [4-(4-cyclopentanesulfonyl-phenoxy)-6-fluoro-3-methyl-naphthalen-2-yl]-acetic acid]
12 | – | 2.4 | CCCS(=O)(=O)c1ccc(Oc2c(C)c(CC(=O)O)cc3ccc(F)cc23)cc1 [Example 2-22, {6-fluoro-3-methyl-4-[4-(propane-1-sulfonyl)-phenoxy]-naphthalen-2-yl}-acetic acid]
13 | – | 10 | Cc1c(CC(=O)O)cc2ccc(F)cc2c1Oc1ccc(C#N)cc1 [Example 2-44, [4-(4-cyano-phenoxy)-6-fluoro-3-methyl-naphthalen-2-yl]-acetic acid]
14 | – | 2.9 | Cc1c(CC(=O)O)cc2ccc(F)cc2c1Oc1ccc(S(=O)(=O)c2ccc(F)cc2)cc1 [Example 2-27, {6-fluoro-4-[4-(4-fluoro-benzenesulfonyl)-phenoxy]-3-methyl-naphthalen-2-yl}-acetic acid]
15 | – | 2.2 | Cc1c(CC(=O)O)cc2ccc(F)cc2c1Oc1ccc(S(=O)(=O)N2CCCC2)cc1 [Example 2-38, {6-fluoro-3-methyl-4-[4-(pyrrolidine-1-sulfonyl)-phenoxy]-naphthalen-2-yl}-acetic acid]
16 | – | 2.8 | Cc1c(CC(=O)O)cc2ccc(F)cc2c1Oc1ccc(S(=O)(=O)C(C)C)cc1 [Example 2-4, {6-fluoro-3-methyl-4-[4-(propane-2-sulfonyl)-phenoxy]-naphthalen-2-yl}-acetic acid]
17 | – | 3.6 | Cc1c(CC(=O)O)cc2ccc(F)cc2c1Oc1ccc(S(=O)(=O)c2ccc(Cl)cc2)cc1 [Example 2-31, {4-[4-(4-chloro-benzenesulfonyl)-phenoxy]-6-fluoro-3-methyl-naphthalen-2-yl}-acetic acid]

From patent publication US8642629B2, “Naphthylacetic acids” (Hoffmann-La Roche Inc., priority 2008, dated 2014)
